{
  "source": "patent US8790688B2",
  "about": "“Wound care device for local treatment of pain in a wound” (Coloplast A/S, priority 2001, dated 2014)",
  "origin": "cited, not measured here",
  "data": [
    {"conditions": "reported lowest range for systemic effect", "units": {"plasma concentration for systemic effect in the lowest range": "ng/mL"}, "values": [
      {"smiles": "CC(=O)Oc1ccccc1C(=O)O", "note": "[Acetylsalicylic acid]", "plasma concentration for systemic effect in the lowest range": 270000},
      {"smiles": "CN1C(C(=O)Nc2ccccn2)=C(O)c2ccccc2S1(=O)=O", "note": "[Piroxicam]", "plasma concentration for systemic effect in the lowest range": 1000},
      {"smiles": "CC(C)Cc1ccc(C(C)C(=O)O)cc1", "note": "(stereo not shown) [Ibuprofen]", "plasma concentration for systemic effect in the lowest range": 10000},
      {"smiles": "CC(C(=O)O)c1cccc(C(=O)c2ccccc2)c1", "note": "(stereo not shown) [Ketoprofen]", "plasma concentration for systemic effect in the lowest range": 3000}
    ]}
  ]
}
